# “Also recorded” adds a separate entry of the source.
# What was measured:
# [1] = Solubility of the spin trap in aqueous systems; format: physicochemical; conditions: Sodium Salt
# [2] = Reaction of spin traps with oxidant in CAPD dialysate, ESR detection; conditions: oxidant system; for final nominal concentration at which spin trap reached an excess: 60 μl dialysate, 25 min at room temperature; for signal/marker ratio: DBNBS at 1.2 mM, DCNBS at 2.5 mM
# Protocol: (§1) ESR spectra were obtained using a prototype spectrometer (Jeol (U.K) Ltd., Welwyn Garden City, England) equipped with a TE011 cylindrical cavity. Samples were analysed at room temperature in a WG-LC-11 quartz flat cell (Wilmad-Glass, Buena, N.J.). In general the instrument parameters were: microwave frequency 9.2 GHz, microwave power 4 mW, centre field (CF) 336.7 mT, sweep width (SW) ±5 mT, number of data points 4095, modulation frequency 100 kHz. For the spin traps reacted with horseradish peroxidase/H2O2/sulphite: sweep time 200 s, time constraint 0.1 s, modulation width 0.05. For the spin traps reacted with the oxidant and NO; sweep time 150 s, time constraint 0.3 s, modulation width 0.2 mT. A JEOL ES-DM1 digital manganese oxide marker (0.03 mm of the glass tube inserted per unit on the dial setting) with a dial setting of 500 was used to ensure the reproducibility between samples and to identify the position of the signals in the microwave field.
# Dialysate from a patient with renal failure on Continuous Ambulatory Peritoneal Dialysis (CAPD) was used for this study. The dialysate was collected when the dialysate bag was changed.
# Solutions of 10 mM DBNBS and DCNBS (5, 8, 12, 25 and 30 μl for final concentrations of 0.5, 0.8, 1.2, 2.5 and 3.0 mM) were added to 60 μl of the dialysate. The difference in volume comprised PBS. The reaction mixture was mixed thoroughly and analysed by ESR spectroscopy after 25 min incubation at room temperature.
# [3] = Spin trapping of SO3− (horseradish peroxidase/H2O2/sulphite), ESR detection; conditions: for optimal concentration of spin trap: 25 min incubation at room temperature; for signal/marker ratio: at optimal concentration (DBNBS 17.72 mM, DCNBS 20-25 mM)
# Protocol: as §1
# Solutions of the spin traps DBNBS, DCNBS and DMNBS (40 mM) (25, 50, […], 110.75, 125 and 156.25 μl for final concentrations of 4, 8, 14.68, 17.72, 20 and 25 mM in PBS) were added to 8 μl horseradish peroxidase (91 μM in PBS), 8 μl K2SO3 (100 mM in water) and 12.5 μl H2O2 (5 mM in PBS). The difference in the volume comprised PBS (pH 7.4). The final volume of the reaction mixture was 250 μl. The reaction mixture was mixed thoroughly and analysed by ESR spectroscopy after 25 min incubation at room temperature. Controls were run using individual reactants as well as the reaction mixture above in the absence of the spin traps.
# [4] = Reaction of spin traps with nitric oxide, ESR detection; conditions: for spin trap concentration giving maximum signal intensity / plateau / time at which reaction with NO reaches a maximum: NO 1 mM; for spin trap concentration giving maximum signal intensity / plateau: DBNBS incubated 26 hr, DCNBS 22 hr; for time at which reaction with NO reaches a maximum / limit of detection for NO (S/N ratio equals 3) / limit of quantitation for NO (S/N ratio equals 10): spin trap 0.15M; for time at which reaction with NO reaches a maximum: Tris-HCl pH 7.4; for limit of detection for NO (S/N ratio equals 3) / limit of quantitation for NO (S/N ratio equals 10): DBNBS 50 hr, DCNBS 20 hr, linear part of curve 0 to 10 μM
# Protocol: as §1
# The apparatus shown in FIG. 1 was flushed with nitrogen for 15 min. The vacutainer containing deionised water (4 ml) was then connected to the system and flushed with nitrogen for a further 15 min, to remove any oxygen present in the system, and therefore to prevent the formation of nitrogen dioxide. The NO gas was bubbled through the deionised water via the system for 45 min. The small amount of nitrogen dioxide present in the pressurised NO container was removed by bubbling through two bottles of 5M NaOH. The gas was then bubbled through a scrubbing bottle containing deionised water to remove any alkaline aerosol contamination. Any excess of NO after the deionised water step was bubbled through a scrubbing bottle containing 1M potassium permanganate/1M NaOH to prevent excess NO escaping from the fume hood. The concentration of NO in the resulting NO-saturated water was taken to be 2.0 mM.
# Samples of DBNBS, DCNBS and DMNBS were weighed into vacutainers and evacuated. Tris-HCl buffer, 0.01M, pH 7.4, was deoxygenated by bubbling with nitrogen gas for 15 min. The deoxygenated buffer was added to the spin traps by a gas tight syringe to give a final spin trap concentration of 0.30M. The spin trap solution was briefly flushed with nitrogen and was then ready for use.
# NO-saturated water (1 ml) was added to 1 ml of each of the spin trap solutions (DBNBS, DCNBS and DMNBS). The final concentrations of the spin traps were 0.15M and NO 1 mM. Parallel blanks were carried out by adding 1 ml of deoxygenated water to the spin trap solutions. At each time point samples were taken from test solutions and blanks for ESR spectroscopic analysis and the blank was substracted from the spectra.
# The spin trap solutions were prepared as above to give final concentrations of 0.05, 0.1, 0.15, 0.2 and 0.25M in the reaction mixtures and the parallel blanks. The saturated NO solution (0.5 ml, final concentration 1 mM) was added to the test solutions and the deoxygenated water (0.5 ml) was added to the blanks. The reaction mixtures with DBNBS were incubated for 26 hr. while those with DCNBS were incubated for 22 hr. before analysis by ESR spectroscopy. The blanks were subtracted from their parallel test spectra respectively.
# The concentration of NO in NO saturated water is taken to be 2.0 mM. This NO solution was diluted with deoxygenated water to give final concentrations in the reaction mixture of 0, 0.25, 0.5, 1, 2.5, 5, 10, 50 and 100 μM. The NO solution was added to DBNBS and to DCNBS to give a final spin trap concentration of 0.15M. The blank (or zero point) was ran by adding 0.5 ml of deoxygenated deionised water to the spin trap solutions. The reaction mixture containing DBNBS was incubated for 50 hr, and that containing DCNBS was incubated for 20 hr. The signal to noise ratio was calculated from each spectrum. All withdrawals and additions of solutions were carried out using a gas-tight syringe.
optimal concentration of spin trap ([3]; SO3− system),signal/marker ratio ([3]; SO3− system),"sensitivity relative to DBNBS ([3]; SO3− system, at optimal concentrations)","ESR signal height for SO3− adduct relative to DBNBS-d2-15N ([3]; SO3− generated from HRP, H2O2, SO3 2−)",Compound,solubility compared with DBNBS [1],final nominal concentration at which spin trap reached an excess [2],signal/marker ratio [2],spin trap concentration giving maximum signal intensity / plateau [4],time at which reaction with NO reaches a maximum [4],limit of detection for NO (S/N ratio equals 3) [4],limit of quantitation for NO (S/N ratio equals 10) [4]
20 to 25 mM,10.62,3 times,,"O=Nc1c(Cl)cc(S(=O)(=O)[O-])cc1Cl.[Na+] [DCNBS, 3,5-Dichloro-4-nitrosobenzenesulphonate, Sodium Salt]",improved solubility; also recorded: more soluble than DBNBS,2.5 mM,0.521,0.05 to 0.40 M,20 to 24 h,4.06 µM,17.30 µM
,,,more than three times,"Cc1cc(S(=O)(=O)[O-])cc(C)c1N=O.[Na+] [DMNBS, 3,5-Dimethyl-4-nitrosobenzenesulphonate, Sodium Salt]",,,,,24 to 28 h,,
17.72 mM,3.33,,,"O=Nc1c(Br)cc(S(=O)(=O)[O-])cc1Br.[Na+] [DBNBS, 3,5-dibromo-4-nitrosobenzenesulphonate, sodium salt, reference compound]",,ca. 1.2 mM,0.516,0.15 M,approximately 50 hr,0.23 µM,0.92 µM

# From patent publication US6767715B2, “Nitroso compounds and their use as spin traps” (Randox Laboratories Ltd., priority 2000, dated 2004)
